Test system: relapsed or refractory, rituximab-naive or -sensitive follicular B-cell NHL
Test: Time to next anti-lymphoma therapy, Vc-R vs rituximab study, by biomarker
Assay type: in vivo, human
Design: Median, Time to Next Anti-Lymphoma Therapy / Time to Next Anti-Lymphoma Therapy, Median: unit not given here
Description: Non-Hodgkin lymphoma (NHL) encompasses several unique malignant lymphoid disease entities that vary in clinical behavior, morphologic appearance, immunologic, and molecular phenotype. […] A randomized, open-label, active-controlled, multicenter, multinational, prospective study to compare the efficacy and safety of the combination of bortezomib and rituximab (Vc-R) to single-agent rituximab in subjects who have relapsed or refractory, rituximab-naive or -sensitive follicular B-cell NHL was performed.
Subjects were centrally randomized to Treatment Groups A (Vc-R) or B (rituximab) in a 1:1 ratio taking into account the following stratification factors: • Follicular Lymphoma International Prognostic Index (FLIPI) score (low [0 or 1 factor], intermediate [2 factors], high [≧3 factors]); • Prior rituximab therapy (yes, no); • Time since last dose of anti-lymphoma therapy (≦1 year, >1 year); • Region (United States/Canada, European Union, Rest of World).
The following clinical endpoints were included in the analysis within each treatment group and an overall comparison was made with the biomarker-related endpoints: Progression-free survival, defined as the interval between the date of randomization and the date of progressive disease (PD) or death, whichever is first reported in the ITT population; overall survival; overall response rate (complete response [CR]+CR unconfirmed [CRu]+partial response [PR]); overall CR rate (CR+CRu); duration of response; time to next anti-lymphoma therapy; and treatment free interval.

[1] = PSMB5/L206M: C/C, High Tumor Burden
[2] = PSMB5/L206M: C/C, ≦65 years old
[3] = PSMB5/R24C: C/C, >1 year since last anti-lymphoma treatment
[4] = PSMB5/R24C: C/T, Ann Arbor Stage IV
[5] = PSMB5/R24C: C/T, High Tumor Burden
[6] = PSMB6/A234D: C/C, >1 year since last anti-lymphoma treatment
[7] = PSMB6/A234D: C/C, Ann Arbor Stage IV
[8] = PSMB6/A234D: C/C, European Union
[9] = PSMB6/A234D: C/C, High Tumor Burden
[10] = PSMB6/A234D: C/C, ≦65 years old
[11] = PSMB6/P107A: C/C, >1 year since last anti-lymphoma treatment
[12] = PSMB6/P107A: C/C, Ann Arbor Stage IV
[13] = PSMB6/P107A: C/C, High Tumor Burden
[14] = PSMB6/P107A: C/C, ≦65 years old
[15] = PSMB8/G8R: G/G, >1 year since last anti-lymphoma treatment
[16] = PSMB8/G8R: G/G, Ann Arbor Stage IV
[17] = PSMB8/G8R: G/G, High Tumor Burden
[18] = PSMB8/R141C: C/C, >1 year since last anti-lymphoma treatment
[19] = PSMB8/R141C: C/C, Ann Arbor Stage IV
[20] = PSMB8/R141C: C/C, European Union
[21] = PSMB8/R141C: C/C, High Tumor Burden
[22] = PSMB8/R141C: C/C, ≦65 years old
[23] = PSMB8/V182M: G/G, >1 year since last anti-lymphoma treatment
[24] = PSMB8/V182M: G/G, Ann Arbor Stage IV
[25] = PSMB8/V182M: G/G, European Union
[26] = PSMB8/V182M: G/G, High Tumor Burden
[27] = PSMB8/V182M: G/G, ≦65 years old
[28] = PSMB9/G9E: G/G, >1 year since last anti-lymphoma treatment
[29] = PSMB9/G9E: G/G, Ann Arbor Stage IV
[30] = PSMB9/G9E: G/G, High Tumor Burden
[31] = PSMB9/V32I: C/C, 5 Prior Lines of Therapy
[32] = PSMB9/V32I: C/C, >1 year since last anti-lymphoma treatment
[33] = PSMB9/V32I: C/C, Ann Arbor Stage IV
[34] = PSMB9/V32I: C/C, High Tumor Burden

Substance: rituximab
- Time to Next Anti-Lymphoma Therapy, Median (PSMB5/L206M: C/C, European Union): 675
- Time to Next Anti-Lymphoma Therapy, Evt/N [1]: 108/147
- Time to Next Anti-Lymphoma Therapy, Median [1]: 396
- Time to Next Anti-Lymphoma Therapy, Evt/N (PSMB5/L206M: C/C, No Subgroup): 173/276
- Time to Next Anti-Lymphoma Therapy, Median (PSMB5/L206M: C/C, No Subgroup): 546
- Time to Next Anti-Lymphoma Therapy, Evt/N [2]: 130/198
- Time to Next Anti-Lymphoma Therapy, Median [2]: 489
- Time to Next Anti-Lymphoma Therapy, Evt/N [3]: 81/137
- Time to Next Anti-Lymphoma Therapy, Median [3]: 649
- Time to Next Anti-Lymphoma Therapy, Evt/N (PSMB5/R24C: C/C, No Subgroup): 147/235
- Time to Next Anti-Lymphoma Therapy, Median (PSMB5/R24C: C/C, No Subgroup): 546
- Time to Next Anti-Lymphoma Therapy, Evt/N (PSMB5/R24C: C/C, ≦65 years old): 113/170
- Time to Next Anti-Lymphoma Therapy, Median (PSMB5/R24C: C/C, ≦65 years old): 489
- Time to Next Anti-Lymphoma Therapy, Evt/N [4]: 11/15
- Time to Next Anti-Lymphoma Therapy, Median [4]: 421
- Time to Next Anti-Lymphoma Therapy, Evt/N [5]: 19/21
- Time to Next Anti-Lymphoma Therapy, Median [5]: 317
- Time to Next Anti-Lymphoma Therapy, Evt/N [6]: 98/165
- Time to Next Anti-Lymphoma Therapy, Median [6]: 688
- Time to Next Anti-Lymphoma Therapy, Evt/N [7]: 86/127
- Time to Next Anti-Lymphoma Therapy, Median [7]: 457
- Time to Next Anti-Lymphoma Therapy, Evt/N [8]: 75/119
- Time to Next Anti-Lymphoma Therapy, Median [8]: 675
- Time to Next Anti-Lymphoma Therapy, Evt/N [9]: 108/147
- Time to Next Anti-Lymphoma Therapy, Median [9]: 396
- Time to Next Anti-Lymphoma Therapy, Evt/N (PSMB6/A234D: C/C, No Subgroup): 173/276
- Time to Next Anti-Lymphoma Therapy, Median (PSMB6/A234D: C/C, No Subgroup): 546
- Time to Next Anti-Lymphoma Therapy, Evt/N [10]: 130/198
- Time to Next Anti-Lymphoma Therapy, Median [10]: 489
- Time to Next Anti-Lymphoma Therapy, Evt/N [11]: 95/159
- Time to Next Anti-Lymphoma Therapy, Median [11]: 702
- Time to Next Anti-Lymphoma Therapy, Evt/N [12]: 84/124
- Time to Next Anti-Lymphoma Therapy, Median [12]: 485
- Time to Next Anti-Lymphoma Therapy, Evt/N [13]: 104/140
- Time to Next Anti-Lymphoma Therapy, Median [13]: 380
- Time to Next Anti-Lymphoma Therapy, Evt/N (PSMB6/P107A: C/C, No Subgroup): 167/265
- Time to Next Anti-Lymphoma Therapy, Median (PSMB6/P107A: C/C, No Subgroup): 550
- Time to Next Anti-Lymphoma Therapy, Evt/N [14]: 125/189
- Time to Next Anti-Lymphoma Therapy, Median [14]: 504
- Time to Next Anti-Lymphoma Therapy, Evt/N [15]: 91/155
- Time to Next Anti-Lymphoma Therapy, Median [15]: 702
- Time to Next Anti-Lymphoma Therapy, Evt/N [16]: 80/120
- Time to Next Anti-Lymphoma Therapy, Median [16]: 457
- Time to Next Anti-Lymphoma Therapy, Evt/N (PSMB8/G8R: G/G, European Union): 70/111
- Time to Next Anti-Lymphoma Therapy, Median (PSMB8/G8R: G/G, European Union): 649
- Time to Next Anti-Lymphoma Therapy, Evt/N (PSMB8/G8R: G/G, Female): 94/160
- Time to Next Anti-Lymphoma Therapy, Median (PSMB8/G8R: G/G, Female): 649
- Time to Next Anti-Lymphoma Therapy, Evt/N [17]: 104/140
- Time to Next Anti-Lymphoma Therapy, Median [17]: 374
- Time to Next Anti-Lymphoma Therapy, Evt/N (PSMB8/G8R: G/G, No Subgroup): 165/264
- Time to Next Anti-Lymphoma Therapy, Median (PSMB8/G8R: G/G, No Subgroup): 537
- Time to Next Anti-Lymphoma Therapy, Evt/N (PSMB8/G8R: G/G, ≦65 years old): 123/189
- Time to Next Anti-Lymphoma Therapy, Median (PSMB8/G8R: G/G, ≦65 years old): 504
- Time to Next Anti-Lymphoma Therapy, Evt/N [18]: 98/165
- Time to Next Anti-Lymphoma Therapy, Median [18]: 688
- Time to Next Anti-Lymphoma Therapy, Evt/N [19]: 86/127
- Time to Next Anti-Lymphoma Therapy, Median [19]: 457
- Time to Next Anti-Lymphoma Therapy, Evt/N [20]: 75/119
- Time to Next Anti-Lymphoma Therapy, Median [20]: 675
- Time to Next Anti-Lymphoma Therapy, Evt/N [21]: 108/147
- Time to Next Anti-Lymphoma Therapy, Median [21]: 396
- Time to Next Anti-Lymphoma Therapy, Evt/N (PSMB8/R141C: C/C, No Subgroup): 173/276
- Time to Next Anti-Lymphoma Therapy, Median (PSMB8/R141C: C/C, No Subgroup): 546
- Time to Next Anti-Lymphoma Therapy, Evt/N [22]: 130/198
- Time to Next Anti-Lymphoma Therapy, Median [22]: 489
- Time to Next Anti-Lymphoma Therapy, Evt/N [23]: 98/165
- Time to Next Anti-Lymphoma Therapy, Median [23]: 688
- Time to Next Anti-Lymphoma Therapy, Evt/N [24]: 86/127
- Time to Next Anti-Lymphoma Therapy, Median [24]: 457
- Time to Next Anti-Lymphoma Therapy, Evt/N [25]: 75/119
- Time to Next Anti-Lymphoma Therapy, Median [25]: 675
- Time to Next Anti-Lymphoma Therapy, Evt/N [26]: 108/147
- Time to Next Anti-Lymphoma Therapy, Median [26]: 396
- Time to Next Anti-Lymphoma Therapy, Evt/N (PSMB8/V182M: G/G, No Subgroup): 173/276
- Time to Next Anti-Lymphoma Therapy, Median (PSMB8/V182M: G/G, No Subgroup): 546
- Time to Next Anti-Lymphoma Therapy, Evt/N [27]: 130/198
- Time to Next Anti-Lymphoma Therapy, Median [27]: 489
- Time to Next Anti-Lymphoma Therapy, Evt/N [28]: 97/163
- Time to Next Anti-Lymphoma Therapy, Median [28]: 688
- Time to Next Anti-Lymphoma Therapy, Evt/N [29]: 86/126
- Time to Next Anti-Lymphoma Therapy, Median [29]: 457
- Time to Next Anti-Lymphoma Therapy, Evt/N (PSMB9/G9E: G/G, European Union): 75/119
- Time to Next Anti-Lymphoma Therapy, Median (PSMB9/G9E: G/G, European Union): 675
- Time to Next Anti-Lymphoma Therapy, Evt/N [30]: 107/145
- Time to Next Anti-Lymphoma Therapy, Median [30]: 396
- Time to Next Anti-Lymphoma Therapy, Evt/N (PSMB9/G9E: G/G, No Subgroup): 172/274
- Time to Next Anti-Lymphoma Therapy, Median (PSMB9/G9E: G/G, No Subgroup): 546
- Time to Next Anti-Lymphoma Therapy, Evt/N (PSMB9/G9E: G/G, ≦65 years old): 129/196
- Time to Next Anti-Lymphoma Therapy, Median (PSMB9/G9E: G/G, ≦65 years old): 489
- Time to Next Anti-Lymphoma Therapy, Evt/N (PSMB9/R60H: A/G, Male): 22/28
- Time to Next Anti-Lymphoma Therapy, Median (PSMB9/R60H: A/G, Male): 380
- Time to Next Anti-Lymphoma Therapy, Evt/N [31]: 7/8
- Time to Next Anti-Lymphoma Therapy, Median [31]: 228
- Time to Next Anti-Lymphoma Therapy, Evt/N [32]: 96/160
- Time to Next Anti-Lymphoma Therapy, Median [32]: 649
- Time to Next Anti-Lymphoma Therapy, Evt/N [33]: 84/123
- Time to Next Anti-Lymphoma Therapy, Median [33]: 457
- Time to Next Anti-Lymphoma Therapy, Evt/N [34]: 106/142
- Time to Next Anti-Lymphoma Therapy, Median [34]: 396
- Time to Next Anti-Lymphoma Therapy, Evt/N (PSMB9/V32I: C/C, ≦65 years old): 127/192
- Time to Next Anti-Lymphoma Therapy, Median (PSMB9/V32I: C/C, ≦65 years old): 489
